From PubChem BioAssay (NCI)
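A five-concentration, 48-hour dose response in 96-well plates underlies each endpoint, interpolated linearly between surrounding concentrations. TGI: total growth inhibition.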

Tests used:
Assay in all cases: NCI anticancer screen, dose series, 48 h
[1] = test system: BT-549 breast
[2] = test system: SK-MEL-2 melanoma
[3] = test system: MALME-3M melanoma
[4] = test system: HOP-62 NSCLC
[5] = test system: MDA-MB-435
[6] = test system: ACHN renal
[7] = test system: K-562 leukemia
[8] = test system: HCT-116 colon
[9] = test system: SW-620 colon
[10] = test system: SF-268 CNS

Structure (SMILES) | TGI [1] | TGI [2] | TGI [3] | TGI [4] | TGI [5] | TGI [6] | TGI [7] | TGI [8] | TGI [9] | TGI [10]
c1ccc2c(c1)[C@@H]1O[C@@H]1[C@@]13O[C@@]21[C@H]1O[C@H]1c1ccccc13 | 30.3 µM | 37.5 µM | 26.3 µM | 30.8 µM | 28.7 µM | 28.9 µM | 41.7 µM | 25.2 µM | 39.5 µM | 28.3 µM
Oc1cccc(-c2cn3cc(Cl)ccc3n2)c1 | > 100 µM | > 100 µM | > 100 µM | > 100 µM | > 100 µM | > 100 µM | > 100 µM | > 100 µM | > 100 µM | > 100 µM
CC1=NNC(N)=N/C1=C\C(Sc1ccc(Cl)cc1)c1ccc(Cl)cc1Cl (stereo not given) | 55.7 µM | 38 µM | 28.8 µM | 57.8 µM | > 76.6 µM | 29.1 µM | 56.3 µM | > 65 µM | 59.9 µM | 33.2 µM
Nc1nc(Cl)cc(NCC2CC(O)(CO)C2)n1 (stereo not given) | > 100 µM | > 100 µM | > 100 µM | > 100 µM | > 100 µM | > 100 µM | > 100 µM | > 100 µM | > 100 µM | > 100 µM
O=C(O)CCC(NC(=O)/C(=C/c1ccccc1)NC(=O)c1ccccc1)C(=O)O (stereo not given) | > 100 µM | > 100 µM | > 100 µM | > 100 µM | > 100 µM | > 100 µM | > 100 µM | > 100 µM | > 100 µM | > 100 µM
CC(C)c1cc(C(C)C)c(B(c2ccccc2)c2ccccc2)c(C(C)C)c1Br | > 100 µM | > 100 µM | > 100 µM | > 100 µM | > 100 µM | > 100 µM | > 100 µM | > 100 µM | > 100 µM | > 100 µM
CCOC(=O)C1=C(C)N(c2ccc(Cl)cc2)C2(O)C=CC(=O)C3C(=O)N(c4ccccc4)C(=O)C132 (stereo not given) | 5.8 µM | 3.53 µM | 3.57 µM | 4.19 µM | 6.83 µM | 3.07 µM | 9.03 µM | 3.14 µM | 3.68 µM | 4.54 µM
O=C(N(C1=CCCC1)N(c1ccccc1)c1ccccc1)C(F)(F)F | 94.8 µM | 35 µM | 14.4 µM | 69.4 µM | 50.4 µM | 38.8 µM | 68.7 µM | 63.5 µM | 66.8 µM | 48.7 µM
NS(=O)(=O)c1ccc(NS(=O)(=O)c2ccc(NC(=O)N(c3ccccc3)c3ccccc3)cc2)cc1 | > 100 µM | > 100 µM | > 100 µM | > 100 µM | 77 µM | > 100 µM | > 100 µM | > 100 µM | > 100 µM | > 100 µM
Cc1cc(C)c(N)c(CO)c1 | > 100 µM | > 100 µM | > 100 µM | > 100 µM | > 100 µM | > 100 µM | > 100 µM | > 100 µM | > 100 µM | > 100 µM
O=c1[nH]c(=O)c2c([nH]1)[nH]c1ccccc12 | > 100 µM | > 100 µM | > 100 µM | > 100 µM | > 100 µM | > 100 µM | > 100 µM | > 100 µM | > 100 µM | > 100 µM
NC(=O)c1ccc(S(=O)(=NS(=O)(=O)c2ccccc2)c2ccc(C(N)=O)cc2)cc1 | > 100 µM | > 100 µM | > 100 µM | > 100 µM | > 100 µM | > 100 µM | > 100 µM | > 100 µM | > 100 µM | > 100 µM
CSC(=N/N=C(\C)c1ccc(S(=O)(=O)N(C)c2ccccc2)cc1)SC | > 100 µM | > 100 µM | > 100 µM | > 100 µM | > 100 µM | > 100 µM | > 100 µM | > 100 µM | > 100 µM | > 100 µM
COc1ccc(OC)c([N+](=O)[O-])c1-c1nc2sc(C)cn2c1/C=N/N=C(N)N | 41.9 µM | 60.2 µM | 44.3 µM | > 100 µM | 56.7 µM | > 100 µM | 28.7 µM | > 100 µM | > 100 µM | > 100 µM
C[S+](C)C1(c2ccccc2)C(=O)c2ccccc2C1=O | 35.6 µM | > 73.2 µM | > 100 µM | > 100 µM | > 100 µM | > 100 µM | > 100 µM | > 100 µM | > 100 µM | > 100 µM
CC(=O)O[C@H]1CC[C@]2(C=O)[C@H]3CC[C@]4(C)[C@@H](C5=CC(=O)OC5)CC[C@]4(O)[C@@H]3CC[C@]2(O)C1 | 0.575 µM | 1.08 µM | 0.566 µM | 0.833 µM | 0.984 µM | 0.557 µM | > 100 µM | 0.5 µM | 4.85 µM | 0.806 µM
CC(=O)OCC12C(OC(C)=O)C[C@@H](C)C3(CC(c4ccoc4)OC3=O)C1CCC(OC(C)=O)C21CO1 (stereo not given in full) | > 100 µM | > 100 µM | > 100 µM | > 100 µM | > 100 µM | > 100 µM | > 100 µM | > 100 µM | > 100 µM | > 100 µM
